Seven compounds from ChEMBL document CHEMBL4602697 (J Med Chem, 2020) can be followed below.

Structures are written as SMILES.

Series [1] in a line: Permeability across basolateral to apical side in human Caco2 cells coexpressing Pgp at 5 uM measured for 3 hrs by UPLC/MS analysis relative to control. Particulars: caco-2, 3 h. The class given is ADME, cell-based. For orientation: Caco-2 cells form a polarised layer with tight junctions and transporters.
The nature of series [2]: Permeability across basolateral to apical side in human Caco2 cells coexpressing Pgp at 5 uM in presence of P-gp inhibitor valspodar measured for 3 hrs by UPLC/MS analysis. It counts as ADME, cell-based. Particulars: caco-2, 3 h.
Series [3] in a line: Permeability across apical to basolateral side in human Caco2 cells coexpressing Pgp at 5 uM in presence of P-gp inhibitor valspodar measured for 3 hrs by UPLC/MS analysis. The class given is ADME, cell-based. Particulars: caco-2, 3 h.
Series [4] is described as follows: Permeability across apical to basolateral side in human Caco2 cells coexpressing Pgp at 5 uM measured for 3 hrs by UPLC/MS analysis relative to control. The class given is ADME, cell-based. Conditions: caco-2, 3 h.
The species named for a further series is Rattus norvegicus. Put plainly: Ratio of Ki for displacement of [3H]pirenzepin from Wistar rat cortex muscarinic M1 receptor to Ki for displacement of [3H]-NMS from Wistar rat salivary gland muscarinic M3 receptor. For orientation: In a radioligand displacement assay an active substance lowers the binding of a labelled ligand.
For series [5], the target named is Muscarinic acetylcholine receptor M3 (Rattus norvegicus, UniProt P08483). Briefly: Displacement of [3H]-NMS from Wistar rat salivary gland muscarinic M3 receptor.
Series [6] addresses Muscarinic receptor M2 and M3 (Rattus norvegicus) (UniProt P08483+P10980). Put plainly: Ratio of Ki for displacement of [3H]-QNB from Wistar rat heart muscarinic M2 receptor to Ki for displacement of [3H]-NMS from Wistar rat salivary gland muscarinic M3 receptor. The class given is protein assay.
For series [7], the target named is T1, Muscarinic acetylcholine receptor M1 (Rattus norvegicus, UniProt P08482).
T1 sequence (P08482 whole entry): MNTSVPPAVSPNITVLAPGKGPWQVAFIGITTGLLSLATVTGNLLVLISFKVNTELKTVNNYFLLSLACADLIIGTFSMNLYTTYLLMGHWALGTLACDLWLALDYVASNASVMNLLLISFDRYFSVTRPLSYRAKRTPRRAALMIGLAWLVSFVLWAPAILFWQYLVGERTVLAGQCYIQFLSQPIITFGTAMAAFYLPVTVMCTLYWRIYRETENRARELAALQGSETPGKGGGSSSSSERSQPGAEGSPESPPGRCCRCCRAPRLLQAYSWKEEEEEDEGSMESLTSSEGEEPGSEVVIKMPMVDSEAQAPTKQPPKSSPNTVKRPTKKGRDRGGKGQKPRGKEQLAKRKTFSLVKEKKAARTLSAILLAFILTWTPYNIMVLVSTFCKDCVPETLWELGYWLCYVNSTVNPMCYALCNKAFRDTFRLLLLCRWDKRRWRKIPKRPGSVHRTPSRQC
Put plainly: Displacement of [3H]pirenzepin from Wistar rat cortex muscarinic M1 receptor.

The target of series [8] is T2, Muscarinic acetylcholine receptor M2 (Rattus norvegicus, UniProt P10980).
T2 sequence (P10980 whole entry): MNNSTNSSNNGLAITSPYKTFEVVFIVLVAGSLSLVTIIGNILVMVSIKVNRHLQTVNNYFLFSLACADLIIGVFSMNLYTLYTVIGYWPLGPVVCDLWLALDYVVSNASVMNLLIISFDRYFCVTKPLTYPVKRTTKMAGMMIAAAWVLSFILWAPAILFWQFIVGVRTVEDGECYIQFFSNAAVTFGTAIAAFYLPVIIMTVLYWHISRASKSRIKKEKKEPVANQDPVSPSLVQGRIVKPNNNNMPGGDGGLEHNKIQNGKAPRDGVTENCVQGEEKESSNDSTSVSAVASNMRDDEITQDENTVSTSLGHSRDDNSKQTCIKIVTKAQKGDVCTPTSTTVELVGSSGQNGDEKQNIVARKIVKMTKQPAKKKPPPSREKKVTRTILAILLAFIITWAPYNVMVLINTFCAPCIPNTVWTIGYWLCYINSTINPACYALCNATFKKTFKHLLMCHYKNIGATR
Put plainly: Displacement of [3H]-QNB from Wistar rat heart muscarinic M2 receptor.

Series [9] can be described thus: Metabolic stability in Sprague-Dawley rat liver microsomes assessed as parent compound remaining at 20 uM measured for 120 mins by HPLC/MS analysis relative to control. The class given is ADME, Microsome. Conditions: read-out: Stability. In general terms: Microsomes from liver hold many membrane-bound enzymes, among them those of drug oxidation.

Chain of Muscarinic acetylcholine receptor M3 (P08483 whole entry): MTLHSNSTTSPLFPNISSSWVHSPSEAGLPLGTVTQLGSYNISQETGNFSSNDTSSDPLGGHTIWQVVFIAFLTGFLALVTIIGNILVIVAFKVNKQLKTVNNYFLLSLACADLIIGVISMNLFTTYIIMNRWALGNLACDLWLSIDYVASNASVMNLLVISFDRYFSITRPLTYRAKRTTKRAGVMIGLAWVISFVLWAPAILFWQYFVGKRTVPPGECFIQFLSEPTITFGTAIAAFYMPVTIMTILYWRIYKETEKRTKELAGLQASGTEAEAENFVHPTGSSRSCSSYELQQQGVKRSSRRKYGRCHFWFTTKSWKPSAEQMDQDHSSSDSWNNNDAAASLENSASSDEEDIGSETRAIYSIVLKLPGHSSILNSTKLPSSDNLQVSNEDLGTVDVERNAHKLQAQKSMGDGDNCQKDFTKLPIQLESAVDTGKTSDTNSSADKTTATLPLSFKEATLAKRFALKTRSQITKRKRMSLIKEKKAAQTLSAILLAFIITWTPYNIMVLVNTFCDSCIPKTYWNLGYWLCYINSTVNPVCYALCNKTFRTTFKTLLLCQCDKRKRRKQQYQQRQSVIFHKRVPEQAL
Chain of Muscarinic receptor M2 and M3 (Rattus norvegicus) (P08483 whole entry, looked up, one chain of several): as the sequence (P08483 whole entry) above

Turning to `C[C@H]1O[C@@H](O[C@H]2[C@@H](O)C[C@H](O[C@H]3[C@@H](O)C[C@H](O[C@H]4CC[C@@]5(C)[C@H](CC[C@@H]6[C@@H]5C[C@@H](O)[C@]5(C)[C@@H](C7=CC(=O)OC7)CC[C@]65O)C4)O[C@@H]3C)O[C@@H]2C)C[C@H](O)[C@@H]1O` [DIGOXIN], the permeability came to 19.9% in series [1], 10.5% in [2], 10.2% in series [3] and 6.7% in series [4].
As a reminder, the Ki is the equilibrium dissociation constant of an inhibitor or competing ligand from its target. Consider `O=C(Nc1ccccc1-c1ccccc1)OC1CCNCC1`, for which the Ratio Ki in the series filed under Rattus norvegicus came out at 1.2; in [6], 10. The values for the inhibition constant (Ki) in series [5], in series [7] and in series [8] were 27 nM, 32 nM and 270 nM, respectively.
On to `C[N+]12CCC(CC1)[C@@H](OC(=O)Nc1ccc(F)cc1-c1cccc(Cl)c1)C2`, for which the remaining at 2 h, 20 µM in [9] was 65%.
As for `O=C(Nc1ccc(F)cc1-c1cccc(Cl)c1)OCC1CCNCC1`, the remaining at 2 h, 20 µM in series [9] is 53%.
`O=C(Nc1ccc(F)cc1-c1ccc(F)c(Cl)c1)OCC1CCNCC1`: the remaining at 2 h, 20 µM in [9] worked out at 74%.
The same measure, in the same setting: under `C[N+]12CCC(CC1)[C@@H](OC(=O)Nc1ccc(F)cc1-c1ccc(F)c(Cl)c1)C2` stands 63%.
Regarding `O=C(Nc1ccccc1-c1ccccc1)O[C@H]1CN2CCC1CC2`, the Ki came out at 0.47 nM in series [5], 0.65 nM in series [7] and 7.6 nM in series [8].
